Earlier results, collected in article PMC7859440, “Transporter Gene Regulation in Sandwich Cultured Human Hepatocytes Through the Activation of Constitutive Androstane Receptor (CAR) or Aryl Hydrocarbon Receptor (AhR)” (Frontiers in Pharmacology, 2021).

Test system: SLC51B
Design: method as in Niu et al., 2019
Conditions: rifampin (PXR ligand), human and monkey hepatocytes; ref Niu et al., 2019; cited from earlier work

## CO[C@H]1/C=C/O[C@@]2(C)Oc3c(C)c(O)c4c(O)c(c(/C=N/N5CCN(C)CC5)c(O)c4c3C2=O)NC(=O)/C(C)=C\C=C\[C@H](C)[C@H](O)[C@@H](C)[C@@H](O)[C@@H](C)[C@H](OC(C)=O)[C@@H]1C [rifampin]
  SLC51B induction: greater than 10 fold
